Results taken from a melting point compilation (Tetko et al.; mined from patent text by program, amines drawn as free bases though some values may be those of a salt).
Residues, ends and D or L forms follow the SMILES beside them. *: point of attachment. Boc = CC(C)(C)OC(=O)*

| SMILES | melting point [°C] |
| --- | --- |
| Cc1cccc(NC(=O)NC2N=C(c3ccccc3F)c3ccccc3N(Cc3ccc4ccccc4n3)C2=O)c1 (racemic) | 224 to 225 |
| O=C(CCl)N1Cc2ccccc2P1(=O)c1ccccc1 (stereo unspecified) | 167 to 169 |
| Cc1c(CC(=O)O)c2c(F)c(O)ccc2n1C(=O)c1ccc(Cl)cc1 | 187 to 189 |
| Cc1nn(-c2cc(CC(Cl)C(=O)NC3CC3)c(Cl)cc2Cl)c(=O)n1C(F)F (stereo unspecified) | 139 to 143 |
| COC(=O)CC[C@H](NC(=O)c1ccc(CCC2CNc3nc(NC(=O)C(C)(C)C)nc(O)c3C2)s1)C(=O)OC (stereo partly specified) | 152 to 160 |
| Cn1c(=S)n(C)c(=O)n(-c2c(F)cc(Cl)c3ncoc23)c1=O | 209 to 211 |
| COC(=O)c1[nH]c(C)c(C)c1OCC1CO1 (stereo unspecified) | 85 to 87 |
| Cc1cc(CCCCCCCc2ccc(C#N)cc2)on1 | 61 |
| CCOC(=O)NCC(=O)O | 55 to 58 |
| CC(NC(=O)C(Cc1ccc(O)cc1)NC(=O)OC(C)(C)C)C(=O)NCC(=O)O (stereo not drawn) (Boc-Tyr-Ala-Gly-OH; configuration not given here) | 194 to 197 |
| CS(=O)(=O)c1ccc(C(CC2CCCC2)C(=O)Nc2nccs2)cc1Br (stereo unspecified) | 106 to 107 |
| CC(C)Cn1nc(-c2ccc(F)cc2F)cc(COS(C)(=O)=O)c1=O | 86.7 to 88.6 |
| Cc1cc(C(C)(C)C)c(C)c(O)c1-c1c(C)cc(C(C)(C)C)c(C)c1O | 103 to 105 |
| CC(=O)NC[C@H]1CN(c2ccc(N3CCC(C#N)(CC#N)CC3)c(F)c2)C(=O)O1 | 222 to 224 |
| CSc1cccc(SC)c1S(=O)(=O)NC(C)(C)C | 182 to 185 |
| CCN1CCO[C@]2(C)c3cccc4[nH]cc(c34)C[C@@H]12 (relative stereo) | 129 to 130 |
| OC1C2C=CC1C1N=NC21 (stereo unspecified) | 128 |
| CCOC(CBr)(OCC)C(=NOC)C(=O)Cl | 33 to 35 |
| CCCCCCCN(C[C@H]1CC[C@H](CN(CCCCCCC)C(=O)Nc2ccc(N(C)C)cc2)CC1)C(=O)Nc1ccc(N(C)C)cc1 | 112 to 114 |
| Cc1c(N)c([N+](=O)[O-])cc2c(=O)c(C(=O)O)cn(-c3cc(N)c(F)cc3F)c12 | > 280 |
| CC(C)(C)c1cc(OCC(=O)NN)cc(C(C)(C)C)c1O | 141 to 142 |

| SMILES | melting point [°C] |
| --- | --- |
| CC(=O)SCCc1ccc(C=O)cc1 | 35 |
| C#CCOc1cc(-n2nnn(CCC)c2=O)c(Cl)cc1Cl | 70 to 72 |
| CCS(=O)(=O)N(C)C1c2cc(Cl)cc(Cl)c2OC(C)(C)C1OC(C)=O (stereo unspecified) | 136 to 137 |
| C=CCOC(=O)C1=C(C)NC(C)=C(C(=O)OC)C1c1cccc([N+](=O)[O-])c1 (single isomer, unassigned; (-)) | 215 to 217 |
| COc1c(CS(=O)(=O)C2=NOC(C)(C)C2)c(C(F)(F)F)nn1C | 113 to 114 |
| CCN(CC)C(=S)NC1CC2c3cccc4[nH]c(I)c(c34)CC2N(C)C1 (stereo unspecified) | 198 |
| Cc1cc(N)c([N+](=O)[O-])cc1NCCO | 141 |
| COc1cc(NC(=O)C2C(=O)N(C)C(=O)N(C)C2=O)ccc1Oc1nnc(C(C)(C)C)s1 | 178 to 179 |
| CCCCC12CCC3=C(CCc4cc(OC)ccc43)C1CCC2=O (stereo unspecified) | 105 to 108 |
| CC(C)(Cl)CC(=O)c1cc(C(C)(C)C)c(O)c(C(C)(C)C)c1 | 101 to 102 |
| CN(Cc1ccc(NC(=O)C2=Cc3cc(-c4cccc(C(F)(F)F)c4)ccc3S(=O)(=O)CC2)cc1)C1CCOCC1 | 236 to 238 |
| Nc1ccc(Cc2ccc(C3(c4ccc(Cc5ccc(N)cc5)cc4)CCCCC3)cc2)cc1 | 154 to 156 |
| O=S1(=O)c2sccc2C=C(CO)N1CCN1CCOCC1 | 119 to 121 |
| COc1cc(C(C)(C)C(N)=O)cc2c1OC(C)(C)C2 | 112 to 113 |
| NC(=O)c1nc(CN2CCOCC2)n(-c2ccc(Cl)cc2C(=O)c2ccccc2Cl)n1 | 165 to 167 |
| CC(Br)(CBr)CS(=O)(=O)Oc1c(Cl)cccc1Cl (stereo unspecified) | 74 to 76 |
| O=C1CCCC(=O)N1c1ccc([N+](=O)[O-])cc1 | 207 to 209 |
| CN1Cc2c(C(=O)NN)ncn2-c2cccc(Cl)c2C1=O | 287 |
| CCCNC(=O)Nc1cc(C(C)(C)C)c2c(c1)C(C)(C)CO2 | 193 to 194 |
| Cc1ccc2c(c1)c(=O)c(S(C)=O)cn2C (stereo unspecified) | 202 to 205 |

The next lines start with the values.

| melting point [°C] | SMILES |
| --- | --- |
| 315 to 318 | Cc1nc(-c2ccc(-c3cnc4[nH]c(=O)n(CC5CCCCC5)c4n3)cc2)n[nH]1 |
| 120 | CC(=O)Nc1ccc(C(=O)c2cc(-c3cccnc3)c(N3CCOCC3)s2)cc1 |
| 179 to 180 | CN(C)NC(=O)c1sc(Nc2ccccc2)c2c1CCc1cnoc1-2 |
| 163 to 164 | CCOC(=O)C1=C(COCC(C)(O)Cc2ccccn2)NC(C)=C(C(=O)OC)C1c1cccc(Cl)c1Cl (stereo unspecified) |
| 125 to 133 | CCc1nc2cc(NC(C)=O)c(Cl)cc2n1-c1ccc(CCNC(=O)NS(=O)(=O)c2ccc(C)cc2)cc1 |
| 96 | C=Cc1cccc2ccc(O)nc12 |
| 210 to 211 | Cc1cc(Nc2ccccc2C(=O)O)n(C)n1 |
| 239 to 240 | Fc1ccc(-c2n[nH]cc2-c2ccnc(Nc3ccccc3F)n2)cc1 |
| 174 to 180 | CC(C)c1ccc(-n2c(CC(=O)O)c(C(=O)O)c3cc(Oc4ccc(Cl)cc4)ccc32)cc1 |
| 198 to 199 | COc1ccc2cc(-c3cnc(-c4cn(Cc5ccccc5)c5ccccc45)o3)ccc2c1 |
| 99 to 101 | C=CCN(NC(=O)c1ccc(Cl)c(S(N)(=O)=O)c1)c1ccccc1 |
| 88 | CCN(CC)C(=O)COc1nc(-c2ccccc2)c2ccccc2n1 |
| 72 to 73 | Cc1cccc(C=Cc2ccncc2)n1 |
| 286 to 288 | COc1cc(NC2=C(Cl)C(=O)c3ccccc3C2=O)ccc1S(=O)(=O)Nc1cccc(C)c1 |
| 134 to 135 | CCS(=O)(=O)c1cc(OCCCCCCc2cccc(OCCCC(=O)O)c2CCC(=O)O)cc(-c2ccc3c(c2)OCO3)c1 |
| 148 to 149 | Cc1c(NC(=O)c2ccc(OCC3CCOC3)cc2)ccc2cc(CNC3CCCC3)cnc12 (stereo unspecified) |
| 234 to 237 | CC1=Nc2c3ccccc3nc(=O)n2C1C (stereo unspecified) |
| 123 | CCc1cccc(CC(=O)O)c1OCCCc1cn(-c2ccc(Br)cn2)nc1C(CC)CC |
| 215 to 217 | CNc1nc(-c2ccccc2)c(-c2nc3ccccc3c(=O)n2-c2ccccc2Cl)s1 |
| 311 to 319 | Cc1nc2c3c(c(C(N)=O)cc2n1C)CCC(c1ccccc1)N3 (stereo unspecified) |
| 150 to 151 | O=[N+]([O-])c1ccccc1CN1CCC(c2cc(-c3ccc(Cl)cc3)[nH]n2)CC1 |
| 118 to 119 | Cc1oc(-c2ccccc2)nc1COc1ccc2c(-c3ccccc3)c(COc3nn(-c4ccccc4)cc3CO)oc2c1 |
| 34 | CCOC(=O)c1ccc(NC2CCCc3ccccc32)cc1 (stereo unspecified) |
| 75 to 76 | CCn1cc(CN(C(=O)C2CCCc3ccccc32)c2ccc(C(C)C)cc2)cn1 (stereo unspecified) |
| 149 to 152 | Cc1cc(=O)oc2nn(Cc3ccc(Cl)cc3)c(C)c12 |
| 159 to 161 | Cc1ccc2c(-n3ccnc3)c(F)ccc2n1 |
| 155 to 156 | Cc1ccc(-c2cc3onc(-c4ccccc4)c3c(=O)n2C)cc1 |
| 149 to 150 | Nc1ccc(CN2C(=O)[C@H]3CCC[C@H]3Nc3ccccc32)cc1 (relative stereo) |

| melting point [°C] | SMILES |
| --- | --- |
| 154 to 156 | CC(C)(C)c1cc(CCC(=O)O)cc(-n2nc3ccc(Sc4ccccc4)cc3n2)c1O |
| 63 to 64 | c1ccc(-c2nc(COc3cccc(CCCn4ccnc4)c3)cs2)cc1 |
| 129 to 131 | CCOC(=O)COc1ccc(Cn2c(-c3ccc(OCc4ccccc4)cc3)c(C)c3cc(OCc4ccccc4)ccc32)cc1 |
| 177 | CCOc1ccc(-c2cc3ccccc3[nH]2)cc1OC |
| 130 to 132 | COc1cc2c(cc1Cl)C(O)Cc1ccccc1S2 (stereo unspecified) |
| 154 | O=C(CBr)c1ccc(Cl)c(S(=O)(=O)Nc2ccccc2)c1 |
| 78 to 79 | O=C(Cl)COc1nn(Cc2ccccc2)c2ccccc12 |
| 90 | CC(=O)N1c2ccc(-c3ccc(CN(C)C)cc3)cc2C(Nc2ccccc2)CC1C (stereo unspecified) |
| 88.5 to 89.7 | CC(=O)Oc1ccccc1C(=O)Nc1cccc(F)c1 |
| 156 to 157 | CCCCC(=O)Nc1c(C)c(C)c2c(c1C)C(c1ccc(C)cc1)C(C)(C)O2 (stereo unspecified) |
| 104 to 106 | N#Cc1cc(C(F)(F)F)n(Cc2ccccc2)c1-c1ccc(Cl)cc1 |
| 65 | O=C(NCc1ccccc1)C1Cc2ccccc2N1S(=O)(=O)c1ccc(-c2ccc(F)cc2)cc1 (stereo unspecified) |
| 148 | Cc1cc(C)nc(OC(C(=O)O)c2ccccc2)n1 (stereo unspecified) |
| 89 to 90 | CN=C1c2ccccc2CCc2ccccc21 |
| 151 to 153 | Cc1cc2c(C)cc(-c3ccccc3Cl)nc2nc1-c1ccccc1 |
| 137 to 138 | N#Cc1ccc(OCc2ccc3c(c2)OCO3)cc1OC(C(=O)O)c1ccccc1C(F)(F)F (racemic) |
| 297 to 298 | O=C(NCCc1ccccc1)c1cc2c(cn1)[nH]c1ccccc12 |
| 50 to 51 | Cc1cc(-c2oncc2CCCO)ccc1Cl |
| 201 to 203 | N#Cc1cccc(-c2nc(-c3cccnc3)no2)n1 |
| 132 | CCN(CC)C(=O)C(C)c1cc(-c2ccccc2)nc2ccccc12 (stereo unspecified) |
| 162 to 166 | O=C(c1cccs1)c1cnn2c(-c3cc([N+](=O)[O-])ccc3Cl)ccnc12 |
| 218 | COc1c(C)c(C(=O)c2ccc3nc(C)oc(=O)c3c2)n2ccccc12 |
| 122 to 125 | O=C1Cc2c(Cl)cccc2Sc2ccccc21 |
| 154 to 155 | COC(=O)c1cc(-c2nccs2)cc2c1OC(c1ccccc1)(c1ccccc1)O2 |
| 140 to 142 | NC1=NS(=O)N=C1NCCCN(Cc1ccsc1)c1ccccn1 (stereo unspecified) |
| 211 to 212 | CNC(=O)CCc1cn(Cc2ccc(C(=O)NS(=O)(=O)c3ccccc3C)cc2OC)c2cc(C(=O)NCC3CCCC3)ccc12 |
| 182 | COc1cccc(OC)c1C1(O)C(=O)Nc2ccc(Cl)cc21 (stereo unspecified) |
